One molecule from patent US12344597B2, “Alkoxy-substituted pyridinyl derivatives as LPA1 receptor antagonists and their use in the treatment of fibrosis” (IDORSIA PHARMACEUTICALS LTD, priority 2018, dated 2025) can be followed below.

Assay [1] addresses human LPA1 receptor (Homo sapiens (Human), UniProt Q92633). Nature of the assay: Beta-arrestin recruitment assay to determine IC50 values for human LPAR1. The note with it: antagonist mode, Tango EDG2-bla U2OS cells, LPA 18:1 500 nM final. It counts as cell-based. Put shortly:
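Antagonist IC50 = concentration giving 50% inhibition of maximal LPA response. Read-out is beta-lactamase reporter activity after arrestin-protease recruitment in U2OS cells bearing LPA1-TEV-Gal4-VP16 construct; cells pre-incubated 20 h, 37 °C, 5% CO2.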

Assay [2] deals with LPA-induced skin vascular leakage. The assay is described as follows: mouse LPA-induced skin vascular leakage model. The format is in vivo. The following applies: mice, oral administration of 100 mg/kg, LPA-induced vascular leakage (Evans blue). The protocol:
Assessment of In Vivo Potency
The in vivo potency of the compounds of formulae (I), (II) and (III) can be determined using a mouse LPA-induced skin vascular leakage model. Female Balb/c mice are treated with either vehicle or test compound (p.o.) for at least 1 h prior to administration of the albumin marker Evans blue (50 mg/kg, i.v., 0.9% NaCl) and subsequent challenge with LPA (5 μg, i.d.). After 30 minutes, mice are sacrificed by CO2 inhalation. Discs of skin from the injection sites are removed, digested in formamide (500 μl, 37° C., 24 hrs) and the content of Evans blue quantified by colorimetric assay. Results are expressed as extravasated Evans blue per skin disc (μg/disc).
As an example, the compound of Ex 12-21 is able to effectively reduce LPA-induced vascular leakage after oral administration of 100 mg/kg to mice as compared to a group of animals treated with vehicle only. Reduction of vascular leakage compared to vehicle group was ≥60%.

Sequence of human LPA1 receptor (Q92633 whole entry, the tested form may be a part): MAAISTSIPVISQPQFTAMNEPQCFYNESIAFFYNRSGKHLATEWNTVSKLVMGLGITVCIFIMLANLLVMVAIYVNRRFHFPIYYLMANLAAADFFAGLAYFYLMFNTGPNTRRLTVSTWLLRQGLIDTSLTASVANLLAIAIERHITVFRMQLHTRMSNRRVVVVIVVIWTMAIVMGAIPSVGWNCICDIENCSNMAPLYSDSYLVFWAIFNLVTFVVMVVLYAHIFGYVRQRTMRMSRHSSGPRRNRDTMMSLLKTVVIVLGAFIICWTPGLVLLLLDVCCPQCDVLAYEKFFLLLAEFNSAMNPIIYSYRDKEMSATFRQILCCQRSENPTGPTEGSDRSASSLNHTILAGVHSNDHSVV

Broadly, the IC50 is the concentration at which inhibition is half-maximal. Lower therefore signals inhibition by little substance. The molecule `Cc1ccc(NC(=O)C2(c3ccccc3C(C)C)CN(C(=O)Cn3nccn3)C2)c(OC(F)F)n1` [Ex 12-21, 1-(2-(2H-1,2,3-triazol-2-yl)acetyl)-N-(2-(difluoromethoxy)-6-methylpyridin-3-yl)-3-(2-isopropylphenyl)azetidine-3-carboxamide] came in with an IC50 in assay [1] of 5.6 nM. Also, the “Reduction of vascular leakage compared to vehicle group” value in assay [2] is listed as at least 60%.
